Laboratory results from ChEMBL document CHEMBL5154769, “Discovery of the First-in-Class Agonist-Based SOS1 PROTACs Effective in Human Cancer Cells Harboring Various KRAS Mutations” (J Med Chem, 2022).
Calls of active or inactive are those of the source. No cut-off for these calls is given here.

Experiments:
[1] = target: T1, von Hippel-Lindau disease tumor suppressor/Son of sevenless homolog 1 (Homo sapiens, UniProt Q07889+P40337); assay: Protac activity at VHL/SOS1 in human NCI-H358 cells assessed as SOS1 protein degradation at 1 uM incubated for 24 hr by Western blot analysis relative to control; type: cell-based
Target sequence in this assay (P40337 whole entry, looked up): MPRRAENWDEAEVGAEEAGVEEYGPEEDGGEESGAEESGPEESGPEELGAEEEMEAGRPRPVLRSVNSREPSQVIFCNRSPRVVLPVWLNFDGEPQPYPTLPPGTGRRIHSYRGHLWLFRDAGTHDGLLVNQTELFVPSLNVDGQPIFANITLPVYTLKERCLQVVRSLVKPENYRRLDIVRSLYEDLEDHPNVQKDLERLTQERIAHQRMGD
Target sequence in this assay (Q07889 whole entry, looked up): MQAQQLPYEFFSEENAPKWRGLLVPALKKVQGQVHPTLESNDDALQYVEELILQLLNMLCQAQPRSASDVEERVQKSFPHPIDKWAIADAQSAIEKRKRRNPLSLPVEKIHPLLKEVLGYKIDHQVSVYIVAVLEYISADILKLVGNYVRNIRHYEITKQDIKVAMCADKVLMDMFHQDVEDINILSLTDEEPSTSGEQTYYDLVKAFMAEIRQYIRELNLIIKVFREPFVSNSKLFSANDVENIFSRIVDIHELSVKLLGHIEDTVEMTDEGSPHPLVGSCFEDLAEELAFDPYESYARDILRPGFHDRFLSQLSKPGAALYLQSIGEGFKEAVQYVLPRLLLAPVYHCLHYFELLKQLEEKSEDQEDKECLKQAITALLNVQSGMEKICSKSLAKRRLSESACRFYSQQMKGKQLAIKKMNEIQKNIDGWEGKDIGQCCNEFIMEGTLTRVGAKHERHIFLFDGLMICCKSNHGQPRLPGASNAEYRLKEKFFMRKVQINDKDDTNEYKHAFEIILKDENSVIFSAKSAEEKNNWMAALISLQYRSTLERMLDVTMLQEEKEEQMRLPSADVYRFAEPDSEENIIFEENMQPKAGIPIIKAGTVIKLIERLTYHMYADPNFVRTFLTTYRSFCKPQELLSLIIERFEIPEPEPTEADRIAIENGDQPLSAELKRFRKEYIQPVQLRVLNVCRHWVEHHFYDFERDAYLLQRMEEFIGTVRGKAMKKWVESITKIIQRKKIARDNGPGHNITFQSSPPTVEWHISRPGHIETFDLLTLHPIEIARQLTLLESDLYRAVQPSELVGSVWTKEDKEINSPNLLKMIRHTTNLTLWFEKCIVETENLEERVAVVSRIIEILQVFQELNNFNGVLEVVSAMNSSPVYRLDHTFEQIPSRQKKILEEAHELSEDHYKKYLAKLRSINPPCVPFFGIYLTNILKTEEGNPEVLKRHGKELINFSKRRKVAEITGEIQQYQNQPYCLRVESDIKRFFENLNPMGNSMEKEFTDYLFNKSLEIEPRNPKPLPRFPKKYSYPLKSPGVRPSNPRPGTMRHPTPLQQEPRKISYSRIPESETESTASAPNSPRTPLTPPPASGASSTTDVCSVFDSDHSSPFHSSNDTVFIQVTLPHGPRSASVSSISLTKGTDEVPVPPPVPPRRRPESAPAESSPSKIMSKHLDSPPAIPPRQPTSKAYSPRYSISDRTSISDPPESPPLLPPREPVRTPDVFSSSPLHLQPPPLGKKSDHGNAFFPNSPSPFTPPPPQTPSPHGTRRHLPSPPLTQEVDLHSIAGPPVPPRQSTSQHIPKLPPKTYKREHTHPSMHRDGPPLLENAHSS

[2] = system: Mus musculus; assay: In vivo inhibition of phosphorylated ERK level in BALB/c nude mouse xenografted with human NCI-H358 cells at 20 to 50 mg/kg, IT incubated for 21 days by immunohistochemistry analysis; type: functional, organism-based; details: dose 20-50 mg/kg, time 21.0 day
[3] = target: T1, von Hippel-Lindau disease tumor suppressor/Son of sevenless homolog 1; assay: Protac activity at VHL/SOS1 in human NCI-H358 cells assessed as SOS1 protein degradation incubated for 24 hr by Western blot analysis; type: cell-based
Target sequence in this assay (Q07889 whole entry): as the sequence (Q07889 whole entry, looked up) above
Target sequence in this assay (P40337 whole entry): as the sequence (P40337 whole entry, looked up) above

[4] = target: Von Hippel-Lindau disease tumor suppressor/Elongin B/Elongin C (Homo sapiens, UniProt P40337); assay: Binding affinity to VCB E3 ligase (unknown origin) assessed as binary equilibrium dissociation constant by surface plasmon resonance analysis; type: protein-complex assay
Chain of Von Hippel-Lindau disease tumor suppressor/Elongin B/Elongin C (P40337 whole entry, looked up): as above

[5] = system: NCI-H358; assay: Antitumor activity against human NCI-H358 cells xenografted in BALB/c nude mouse assessed as tumor growth inhibition at 10 mg/kg/day, ip incubated for 21 days; type: functional; details: NCI-H358, 504 h, time 21 day, read-out: TGI
[6] = organism: Homo sapiens; assay: Co-operativity factor, Ratio of Kd for Binding affinity to VCB E3 ligase (unknown origin) assessed as binary equilibrium dissociation constant to Kd for binding affinity to SOS1/VCB E3 ligase (unknown origin) assessed as ternary dissociation constant
[7] = system: SW-620; assay: Antiproliferative activity against human SW620 cells harboring KRAS G12V mutant assessed as cell growth inhibition incubated for 7 days by CellTiter-Glo 3D cell viability assay; type: functional, cell-based; details: SW-620, 168 h
[8] = target: T1, von Hippel-Lindau disease tumor suppressor/Son of sevenless homolog 1; assay: Protac activity at VHL/SOS1 in human ASPC1 cells assessed as SOS1 protein degradation at 1 uM incubated measured after 16 hr by western blot analysis; type: cell-based
Target sequence in this assay (P40337 whole entry, looked up): as above
Target sequence in this assay (Q07889 whole entry, looked up): as the sequence (Q07889 whole entry, looked up) above

[9] = system: NCI-H358; assay: Antitumor activity against human NCI-H358 cells xenografted in BALB/c nude mouse assessed as tumor growth inhibition at 20 mg/kg/day, ip incubated for 21 days; type: functional; details: NCI-H358, 504 h, time 21 day, read-out: TGI
[10] = target: von Hippel-Lindau disease tumor suppressor/Son of sevenless homolog 1 (Homo sapiens, UniProt Q07889+P40337, G12V); assay: Protac activity at VHL/SOS1 in human SW-620 cells harboring KRAS G12V mutant assessed as SOS1 protein degradation incubated for 24 hr by Western blot analysis; type: cell-based
[11] = Half life in BALB/c mouse at 10 mg/kg, ip measured after 24 hrs by LC-MS/MS analysis; type: ADME, organism-based; details: in vivo
[12] = Observed MRT (infinity) in BALB/c mouse at 10 mg/kg, ip measured after 24 hrs by LC-MS/MS analysis; type: ADME, organism-based; details: in vivo
[13] = AUClast in BALB/c mouse at 10 mg/kg, ip measured after 24 hrs by LC-MS/MS analysis; type: ADME, organism-based; parameters: dose 10 mg/kg, time 24 hrs, route ip; details: in vivo
[14] = Tmax in BALB/c mouse at 10 mg/kg, ip measured after 24 hrs by LC-MS/MS analysis; type: ADME, organism-based; details: in vivo
[15] = Observed AUC (infinity) in BALB/c mouse at 10 mg/kg, ip measured after 24 hrs by LC-MS/MS analysis; type: ADME, organism-based; parameters: dose 10 mg/kg, time 24 hrs, route ip; details: in vivo
[16] = system: NCI-H358; assay: Antiproliferative activity against human NCI-H358 cells harboring KRAS G12C mutant assessed as growth inhibition incubated for 7 days by CellTiter-Glo 3D cell viability assay; type: functional, cell-based; details: NCI-H358, 168 h
[17] = system: NCI-H358; assay: Effect of compound on human NCI-H358 cells assessed as increase in phophorylated ERK level at 1 uM incubated for 4 hr by Western blot analysis; type: functional, cell-based
[18] = Toxicity in BALB/c nude mouse xenografted with human NCI-H358 cells assessed as effect on body weight at 10 to 20 mg/kg/day, ip for 21 days and measured every 3 day; type: organism-based; details: in vivo, 504 h, dose 10-20 mg/kg/day, time 21 day
[19] = target: T1, von Hippel-Lindau disease tumor suppressor/Son of sevenless homolog 1; assay: Protac activity at VHL/SOS1 in human NCI-H358 cells assessed as SOS1 protein degradation at 0.1 uM incubated for 24 hr by Western blot analysis relative to control; type: cell-based
Target sequence in this assay (P40337 whole entry, looked up): as the sequence (P40337 whole entry, looked up) above
Target sequence in this assay (Q07889 whole entry, looked up): as the sequence (Q07889 whole entry, looked up) above

[20] = system: Mus musculus; assay: In vivo degradation of SOS1 in BALB/c nude mouse xenografted with human NCI-H358 cells at 20 to 50 mg/kg, IT incubated for 21 days by immunohistochemistry analysis; type: functional, organism-based; details: dose 20-50 mg/kg, time 21.0 day
[21] = system: HEK-293T; assay: Cytotoxicity against human HEK-293T cells assessed as cell growth inhibition incubated for 7 days by CellTiter-Glo 3D cell viability assay; type: toxicity, cell-based; details: 168 h, time 7 day
[22] = target: T1, von Hippel-Lindau disease tumor suppressor/Son of sevenless homolog 1; assay: Protac activity at VHL/SOS1 in human A549 cells harboring KRAS […] mutant assessed as SOS1 protein degradation incubated for 24 hr by Western blot analysis; type: cell-based
[23] = target: T1, von Hippel-Lindau disease tumor suppressor/Son of sevenless homolog 1; assay: Protac activity at VHL/SOS1 in human NCI-H358 cells assessed as SOS1 protein degradation at 1 uM and measured after 4 to 24 hr by western blot analysis; type: cell-based; details: time 4-24 hrs
Target sequence in this assay (P40337 whole entry, looked up): as the sequence (P40337 whole entry, looked up) above
Target sequence in this assay (Q07889 whole entry, looked up): as the sequence (Q07889 whole entry, looked up) above

[24] = Toxicity in BALB/c nude mouse xenografted with human NCI-H358 cells assessed as effect on body weight at 20 to 50 mg/kg, IT twice weekly for 5 weeks; type: organism-based; details: in vivo, other, 840 h, dose 20-50 mg/kg
[25] = Binding affinity to SOS1/VCB E3 ligase (unknown origin) assessed as ternary dissociation constant by surface plasmon resonance analysis; parameters: species or system Homo sapiens
[26] = target: von Hippel-Lindau disease tumor suppressor/Son of sevenless homolog 1 (Homo sapiens, UniProt Q07889+P40337, G12R); assay: Protac activity at VHL/SOS1 in human CAL-62 cells harboring KRAS G12R mutant assessed as SOS1 protein degradation incubated for 24 hr by Western blot analysis; type: cell-based
[27] = system: NCI-H358; assay: Effect of compound on human NCI-H358 cells stimulated with EGF assessed as decrease in KRAS-GTP level incubated for 24 hr by RAS-G-LISA assay; type: functional, cell-based
[28] = target: von Hippel-Lindau disease tumor suppressor/Son of sevenless homolog 2 (Homo sapiens) (UniProt P40337+Q07890); assay: Protac activity at VHL/SOS2 in human NCI-H358 cells assessed as SOS2 mRNA level at 1 uM incubated for 24 to 72 hr by qRT PCR analysis; type: cell-based; details: time 24-72 hrs
[29] = organism: Homo sapiens; assay: Binding affinity to SOS1/VCB E3 ligase (unknown origin) assessed as ternary complex formation by measuring hook effect incubated for 1 hr by HTRF assay
[30] = system: MIA PaCa-2; assay: Antiproliferative activity against human MIA PaCa-2 cells harboring KRAS G12C mutant assessed as cell growth inhibition incubated for 7 days by CellTiter-Glo 3D cell viability assay; type: functional, cell-based; details: MIA PaCa-2, 168 h
[31] = target: von Hippel-Lindau disease tumor suppressor/Son of sevenless homolog 1 (Homo sapiens, UniProt Q07889+P40337, G12D); assay: Protac activity at VHL/SOS1 in human ASPC1 cells harboring KRAS G12D mutant assessed as SOS1 protein degradation incubated for 24 hr by Western blot analysis; type: cell-based
Chain of von Hippel-Lindau disease tumor suppressor/Son of sevenless homolog 1 (Homo sapiens, UniProt Q07889+P40337, G12D) (P40337 whole entry, looked up, stated change not applied): as the sequence (P40337 whole entry, looked up) above
Chain of von Hippel-Lindau disease tumor suppressor/Son of sevenless homolog 1 (Homo sapiens, UniProt Q07889+P40337, G12D) (Q07889 whole entry, looked up, stated change not applied): as the sequence (Q07889 whole entry, looked up) above

[32] = system: ASPC1; assay: Antiproliferative activity against human ASPC1 cells harboring KRAS G12D mutant assessed as cell growth inhibition incubated for 7 days by CellTiter-Glo 3D cell viability assay; type: functional, cell-based; details: ASPC1, 168 h

Cc1cc(Cn2c(N3CC4(CNC4)C3)nc3c(N4CCN(CCCCCCCCC(=O)N[C@H](C(=O)N5C[C@H](O)C[C@H]5C(=O)N[C@@H](C)c5ccc(-c6scnc6C)cc5)C(C)(C)C)CC4)cc(Cl)cc32)cc(C)c1F
Activity [1]: 92.5%
Activity [2]: Active
DC50 [3]: 98.4 nM
Kd [4]: 56 nM
inhibition in vivo at 10 mg/kg/day [5]: 72.5%
Ratio [6]: 15.1
IC50 [7]: 199 nM
Activity [8]: Active
inhibition in vivo at 20 mg/kg/day [9]: 86.1%
DC50 [10]: 125 nM
half-life [11]: 8.64 h
MRT inf [12]: 10.2 h
AUC(0-t) at 24 h [13]: 3900 ng·h/mL
Tmax [14]: 0.25 h
AUC(0-inf) [15]: 4420 ng·h/mL
IC50 [16]: 525 nM
Activity [17]: Active
Activity [18]: Non-Toxic
Activity [19]: 56.2%
Activity [20]: Active
Activity [21]: Non-Toxic
DC50 [22]: 22 nM
Activity [23]: Active
Activity [24]: Non-Toxic
Kd [25]: 3.7 nM
DC50 [26]: 126 nM
Activity [27]: Active
Activity [28]: Active
Activity [29]: Active
IC50 [30]: 218 nM
DC50 [31]: 119 nM
IC50 [32]: 307 nM
